Values quoted from earlier work, collected in patent publication US20240398765A1, “TRANSDERMAL THERAPEUTIC SYSTEM FOR THE TRANSDERMAL ADMINISTRATION OF TIZANIDINE” (LTS LOHMANN THERAPIE-SYSTEME AG, priority 2021, published 2024).
Structures can show the parent of a compound that is named as a salt.

Details: background statement, no test described

permeation through the skin | Compound
slightly permeates through the skin | Clc1ccc2nsnc2c1NC1=NCCN1 [tizanidine in the form of its free base, 5-chloro-4-(2-imidazolin-2-ylamino)-2,1,3-benzothiadiazole]
does not permeate through the skin | Clc1ccc2nsnc2c1NC1=NCCN1 [tizanidine in the form of its hydrochloride]
